Source: patent publication US8846912B2, “Tartrate salts of quinazoline based EGFR inhibitors containing a zinc binding moiety” (Curis, Inc., priority 2007, dated 2014)
Counter-ions that a name gives are not always drawn.

What was measured:
[1] = biological target: HDAC; assay: HDAC fluorimetric enzyme assay (HeLa nuclear extract); assay type: biochemical
Description: HDAC inhibitors were screened using an HDAC fluorimetric assay kit (AK-500, Biomol, Plymouth Meeting, Pa.).
Each assay was setup as follows: Defrosted all kit components and kept on ice until use. […] Prepared dilutions of Trichostatin A (TSA, positive control) and tested compounds in assay buffer (5× of final concentration). Diluted Fluor de Lys™ Substrate in assay buffer to 100 uM (50 fold=2× final). Diluted Fluor de Lys™ developer concentrate 20-fold (e.g. 50 μl plus 950 μl Assay Buffer) in cold assay buffer. Second, diluted the 0.2 mM Trichostatin A 100-fold in the 1× Developer (e.g. 10 μl in 1 ml; final Trichostatin A concentration in the 1× Developer=2 μM; final concentration after addition to HDAC/Substrate reaction=1 μM). Added Assay buffer, diluted trichostatin A or test inhibitor to appropriate wells of the microtiter plate. Added diluted HeLa extract or other HDAC sample to all wells except for negative controls.

[2] = biological target: T1, human EGFR(His672-Ala1210) (Homo sapiens, UniProt P00533); assay: EGFR kinase assay (HTScan EGF Receptor Kinase Assay Kit); assay type: biochemical; details: FIG. 1
T1 construct: a construct expressing human EGFR(His672-Ala1210); GST (N); purchased Cell Signaling Technologies; host or cells: baculovirus expression system
Description: The ability of compounds to inhibit receptor kinase (EGFR) activity was assayed using HTScan™ EGF Receptor Kinase Assay Kits (Cell Signaling Technologies, Danvers, Mass.). […] The protein was purified by one-step affinity chromatography using glutathione-agarose.
Immediately transfer enzyme from −80° C. to ice. Allowed enzyme to thaw on ice. […] Returned immediately to ice. […] Incubated reaction plate at room temperature for 30 minutes. […] Added 100 μl/well primary antibody. Incubated at room temperature for 60 minutes. […] Added 100 μl/well diluted antibody. Incubated at room temperature for 30 minutes. […] Incubated at room temperature for 5 minutes.

[3] = Dilution study with D5W (precipitation, chemical stability); assay type: physicochemical; details: for Dilution with D5W: salt in 30% CAPTISOL; for Chemical stability in diluted solution: salt in 30% CAPTISOL diluted with D5W
[4] = pH of salt solution in 30% CAPTISOL; assay type: physicochemical; details: salt in 30% CAPTISOL
Description: Sodium, hydrochloride, citrate and tartrate salts of a test compound of Formula I were prepared in 30% CAPTISOL® solutions and were studied for the following:

T1 sequence (P00533 672-1210): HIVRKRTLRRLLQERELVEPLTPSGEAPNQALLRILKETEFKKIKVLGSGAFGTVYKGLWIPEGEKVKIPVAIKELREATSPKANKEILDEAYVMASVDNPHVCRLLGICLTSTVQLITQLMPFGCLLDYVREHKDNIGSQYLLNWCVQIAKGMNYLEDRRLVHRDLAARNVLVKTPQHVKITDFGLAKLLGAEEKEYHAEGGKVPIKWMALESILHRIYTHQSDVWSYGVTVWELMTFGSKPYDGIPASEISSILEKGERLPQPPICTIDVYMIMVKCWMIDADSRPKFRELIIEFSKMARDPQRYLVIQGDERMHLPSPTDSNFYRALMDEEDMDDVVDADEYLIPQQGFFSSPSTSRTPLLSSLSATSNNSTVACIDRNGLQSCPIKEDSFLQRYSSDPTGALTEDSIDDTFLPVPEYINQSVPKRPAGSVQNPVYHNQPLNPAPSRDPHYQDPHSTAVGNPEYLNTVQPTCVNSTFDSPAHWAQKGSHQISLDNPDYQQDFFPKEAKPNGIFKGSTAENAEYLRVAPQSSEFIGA

## C#Cc1cccc(Nc2ncnc3cc(OCCOC)c(OCCCCCCC(=O)NO)cc23)c1 [Compound 36, 7-(4-(3-Ethynylphenylamino)-7-(2-methoxyethoxy)quinazolin-6-yloxy)-N-hydroxyheptanamide]
[1]
  IC50: < 100 nM

## COc1cc2ncnc(Nc3ccc(F)c(Cl)c3)c2cc1OCC(=O)NO [Compound 1, 2-(4-(3-Chloro-4-fluorophenylamino)-7-methoxyquinazolin-6-yloxy)-N-hydroxyacetamide]
[1]
  IC50: > 10000 nM

## O=C(COc1ccc2ncnc(Nc3ccc(F)c(Cl)c3)c2c1)NO [Compound 13, 2-(4-(3-Chloro-4-fluorophenylamino)quinazolin-6-yloxy)-N-hydroxyacetamide]
[1]
  IC50: > 10000 nM

## C[C@@H](Nc1ncnc2ccc(OCCCCCC(=O)NO)cc12)c1ccccc1 [Compound 50]
[1]
  IC50: 100 to 1000 nM

## C#Cc1cccc(Nc2ncnc3cc(OC)c(NC(=O)CCCCC(=O)NO)cc23)c1 [Compound 43, N^1-(4-(3-ethynylphenylamino)-7-methoxyquinazolin-6-yl)-N^6-hydroxyadipamide]
[1]
  IC50: 100 to 1000 nM

## O=C(CCCCCCOc1ccc2ncnc(Nc3ccc(F)c(Cl)c3)c2c1)NO [Compound 18, 7-(4-(3-chloro-4-fluorophenylamino)quinazolin-6-yloxy)-N-hydroxyheptanamide]
[1]
  IC50: < 100 nM

## C#Cc1cccc(Nc2ncnc3cc(OC)c(OCCC(=O)NO)cc23)c1 [Compound 8]
[1]
  IC50: > 10000 nM

## C#Cc1cc(Nc2ncnc3cc(OC)c(OCCCCCCC(=O)NO)cc23)ccc1F [Compound 75, 7-(4-(3-ethynyl-4-fluorophenylamino)-7-methoxyquinazolin-6-yloxy)-N-hydroxyheptanamide]
[1]
  IC50: < 100 nM

## COc1cc2ncnc(NCc3ccc(F)c(F)c3)c2cc1OCCCCCCC(=O)NO [Compound 87, 7-(4-(3,4-difluorobenzylamino)-7-methoxyquinazolin-6-yloxy)-N-hydroxyheptanamide]
[1]
  IC50: < 100 nM

## COc1cc2ncnc(Nc3ccc(F)c(Cl)c3)c2cc1OCCCC(=O)NO [Compound 3, 4-(4-(3-Chloro-4-fluorophenylamino)-7-methoxyquinazolin-6-yloxy)-N-hydroxybutanamide]
[1]
  IC50: > 10000 nM

## O=C(CCCCCOc1ccc2ncnc(Nc3ccc(F)c(Cl)c3)c2c1)NO [Compound 17, 6-(4-(3-Chloro-4-fluorophenylamino)quinazolin-6-yloxy)-N-hydroxyhexanamide]
[1]
  IC50: < 100 nM

## COc1cc2ncnc(NCc3ccccc3)c2cc1OCCCCCCC(=O)NO [Compound 85, 7-(4-(Benzylamino)-7-methoxyquinazolin-6-yloxy)-N-hydroxyheptanamide]
[1]
  IC50: < 100 nM

## COc1cc2ncnc(Nc3ccc(F)c(Cl)c3)c2cc1OCCOc1ccc(CC(=O)NO)cc1 [Compound 91]
[1]
  IC50: 1000 to 10000 nM

## COc1cc2ncnc(Nc3ccc(F)c(Cl)c3)c2cc1NC(=O)CCCCCCC(=O)NO [Compound 40, N^1-(4-(3-chloro-4-fluorophenylamino)-7-methoxyquinazolin-6-yl)-N^8-hydroxyoctanediamide]
[1]
  IC50: < 100 nM

## C#Cc1cccc(Nc2ncnc3cc(OC)c(OCCCC(=O)NO)cc23)c1 [Compound 9, 4-(4-(3-ethynylphenylamino)-7-methoxyquinazolin-6-yloxy)-N-hydroxybutanamide]
[1]
  IC50: 100 to 1000 nM

## COc1cc2ncnc(NCc3ccc(F)c(Cl)c3)c2cc1OCCCCCCC(=O)NO [Compound 88, 7-(4-(3-chloro-4-fluorobenzylamino)-7-methoxyquinazolin-6-yloxy)-N-hydroxyheptanamide]
[1]
  IC50: < 100 nM

## C[C@@H](Nc1ncnc2ccc(OCCCCCC(=O)NO)cc12)c1ccccc1 [Compound 78, (R)—N-hydroxy-6-(4-(1-phenylethylamino)-quinazolin-6-yloxy)hexanamide]
[1]
  IC50: < 100 nM

## C#Cc1cccc(Nc2ncnc3ccc(OCCCCC(=O)NO)cc23)c1 [Compound 22]
[1]
  IC50: < 100 nM

## COc1cc2ncnc(Nc3ccc(F)c(Cl)c3)c2cc1OCCCCCCC(=O)NO [Compound 6, 7-(4-(3-Chloro-4-fluorophenylamino)-7-methoxyquinazolin-6-yloxy)-N-hydroxyheptanamide]
[1]
  IC50: < 100 nM
[1]; FIG. 1
  activity in HDAC enzyme assay compared with SAHA: more active than erlotinib and SAHA
[2]
  activity in EGFR enzyme assay compared with erlotinib: more active than erlotinib and SAHA

## COc1cc2ncnc(Nc3ccc(F)c(Cl)c3)c2cc1OCCCCCC(=O)NO [Compound 5]
[1]
  IC50: < 100 nM

## COCCOc1cc2ncnc(Nc3ccc(F)c(Cl)c3)c2cc1NC(=O)CCCCC(=O)NO [Compound 69, N^1-(4-(3-chloro-4-fluorophenylamino)-7-(2-methoxyethoxy)quinazolin-6-yl)-N^6-hydroxyadipamide]
[1]
  IC50: 100 to 1000 nM

## COc1cc2ncnc(Nc3ccc(F)c(Cl)c3)c2cc1NC(=O)Nc1ccc(C(=O)NO)cc1 [Compound 93]
[1]
  IC50: 1000 to 10000 nM

## COc1cc2ncnc(Nc3ccc(F)c(Cl)c3)c2cc1NC(=O)CCCC(=O)NO [Compound 38, N^1-(4-(3-chloro-4-fluorophenylamino)-7-methoxyquinazolin-6-yl)-N^5-hydroxyglutaramide]
[1]
  IC50: 1000 to 10000 nM

## COc1cc2ncnc(N[C@@H](C)c3ccccc3)c2cc1OCCCCCCC(=O)NO [Compound 80, (S)—N-hydroxy-7-(7-methoxy-4-(1-phenylethylamino)quinazolin-6-yloxy) heptanamide]
[1]
  IC50: < 100 nM

## Citric Acid
[3]
  Dilution with D5W: >10x
  Chemical stability in diluted solution: >12 h

## Nc1cc(Br)ccc1NC(=O)COc1ccc2ncnc(Nc3ccc(F)c(Cl)c3)c2c1 [Compound 45]
[1]
  IC50: > 10000 nM

## COc1cc2ncnc(N[C@H](C)c3ccccc3)c2cc1OCCCCCCC(=O)NO [Compound 79, (R)—N-hydroxy-7-(7-methoxy-4-(1-phenylethylamino)quinazolin-6-yloxy)heptanamide]
[1]
  IC50: < 100 nM

## O=C(CCCCOc1ccc2ncnc(Nc3ccc(F)c(Cl)c3)c2c1)NO [Compound 16, 5-(4-(3-chloro-4-fluorophenylamino)quinazolin-6-yloxy)-N-hydroxypentanamide]
[1]
  IC50: 100 to 1000 nM

## COc1cc2ncnc(NCc3ccc(F)cc3)c2cc1OCCCCCCC(=O)NO [Compound 86, 7-(4-(4-fluorobenzylamino)-7-methoxyquinazolin-6-yloxy)-N-hydroxyheptanamide]
[1]
  IC50: < 100 nM

## C#Cc1cccc(Nc2ncnc3cc(OC)c(OCCCCCCC(=O)NO)cc23)c1 [Sodium]
[4]
  pH: 10-11
[3]
  Dilution with D5W: >10x
  Chemical stability in diluted solution: >12 h

## COc1cc2ncnc(Nc3ccc(F)c(Cl)c3)c2cc1OCCCCCCC(=O)N(C)O [Compound 94]
[1]
  IC50: > 10000 nM

## COc1cc2ncnc(NCc3cccc(Br)c3)c2cc1OCCCCCCC(=O)NO [Compound 89, 7-(4-(3-bromobenzylamino)-7-methoxyquinazolin-6-yloxy)-N-hydroxyheptanamide]
[1]
  IC50: < 100 nM

## COc1cc2ncnc(NCCc3ccccc3)c2cc1OCCCCCCC(=O)NO [Compound 84]
[1]
  IC50: < 100 nM

## C#Cc1cccc(Nc2ncnc3cc(OC)c(OCCCCCCC(=O)NO)cc23)c1 [HCl]
[4]
  pH: 2-3
[3]
  Dilution with D5W: >10x
  Chemical stability in diluted solution: >12 h

## C#Cc1cccc(Nc2ncnc3ccc(OCCCCCCC(=O)NO)cc23)c1 [Compound 24, 7-(4-(3-ethynylphenylamino)quinazolin-6-yloxy)-N-hydroxyheptanamide]
[1]
  IC50: < 100 nM

## C#Cc1cccc(Nc2ncnc3cc(OC)c(OCC(=O)NO)cc23)c1 [Compound 7, 2-(4-(3-ethynylphenylamino)-7-methoxyquinazolin-6-yloxy)-N-hydroxyacetamide]
[1]
  IC50: > 10000 nM

## C#Cc1cc(Nc2ncnc3cc(OCCOC)c(OCCCCCCC(=O)NO)cc23)ccc1F [Compound 76]
[1]
  IC50: < 100 nM

## C#Cc1cccc(Nc2ncnc3ccc(OCCCCCC(=O)NO)cc23)c1 [Compound 23, 6-(4-(3-ethynylphenylamino)quinazolin-6-yloxy)-N-hydroxyhexanamide]
[1]
  IC50: < 100 nM
